This is an account of results in ChEMBL document CHEMBL1275568, “Comparison of disk diffusion and agar dilution methods for erythromycin, ciprofloxacin, and tetracycline susceptibility testing of Campylobacter coli and for tetracycline susceptibility testing of Campylobacter jejuni subsp. jejuni” (2008).

SMILES strings stand for the structures.

Type in all cases: functional
Test [1] relates to Campylobacter coli. Nature of the test: Antimicrobial activity against Campylobacter coli by disk diffusion method.
The test system of test [2] is Campylobacter coli. The test can be described thus: Antimicrobial activity against Campylobacter coli assessed as resistant rate.
The test system of the next test is Campylobacter jejuni. Nature of the test: Antimicrobial activity against Campylobacter jejuni by disk diffusion method.

On to `O=C(O)c1cn(C2CC2)c2cc(N3CCNCC3)c(F)cc2c1=O` [CIPROFLOXACIN], for which the “diameter of the inhibition zone (DIZ)” value with Campylobacter coli [1] is on record as “>=20 mm”.
Still for that read-out and setting: the value for `CC[C@H]1OC(=O)[C@H](C)[C@@H](O[C@H]2C[C@@](C)(OC)[C@@H](O)[C@H](C)O2)[C@H](C)[C@@H](O[C@@H]2O[C@H](C)C[C@H](N(C)C)[C@H]2O)[C@](C)(O)C[C@@H](C)C(=O)[C@H](C)[C@@H](O)[C@]1(C)O` [ERYTHROMYCIN] was “>=15 mm”.
As for `CN(C)[C@@H]1C(O)=C(C(N)=O)C(=O)[C@@]2(O)C(O)=C3C(=O)c4c(O)cccc4[C@@](C)(O)[C@H]3C[C@@H]12` [TETRACYCLINE], the Activity in the test on Campylobacter coli [2] is listed as 48%. Besides, the results for the “diameter of the inhibition zone (DIZ)” value in the test on Campylobacter coli [1] and in the test on Campylobacter jejuni were “>=26 mm” and “<=20 mm”, respectively.
